Data from publication PMC7529893, “Structural basis for substrate recognition and chemical inhibition of oncogenic MAGE ubiquitin ligases” (Nature Communications, 2020).

Biological target: T1, MAGE-A11:PCF11 interaction (GST-MAGE-A11 and FAM-PCF11_4) (Homo sapiens, UniProt P43364)
T1 construct: GST-MAGE-A11 MHD (human MAGE-A11 MHD amino acid 218-429); made in house; host or cells: E. coli BL21(DE3)
T1 sequence (P43364 218-429): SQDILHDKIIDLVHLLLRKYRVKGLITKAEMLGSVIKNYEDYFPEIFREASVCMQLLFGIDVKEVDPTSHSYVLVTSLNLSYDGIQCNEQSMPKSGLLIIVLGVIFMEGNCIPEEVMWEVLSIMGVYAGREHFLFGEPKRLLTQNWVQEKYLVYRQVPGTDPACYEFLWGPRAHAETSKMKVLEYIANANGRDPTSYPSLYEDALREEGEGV
Assay: TR-FRET primary / single point screen at 15 µM
Format: binding
Procedure, shortened: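 TR-FRET 520/490 nm emission ratio was read after 90 min at room temperature. Wells held 5 nM GST-MAGE-A11, 5 nM Tb-anti-GST, 200 nM FAM-PCF11_4 and 15 µM compound in Tris pH 7.5 buffer with MgCl2, BSA and DTT. %Inhibition was scaled to DMSO and minus-MAGE-A11 controls.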

[1] = single point TR-FRET screening of quinoline compounds against MAGE-A11:PCF11, 15 µM
[2] = single point TR-FRET screening of 797 quinoline compounds against MAGE-A11:PCF11

| SMILES | percent inhibition (TR-FRET) [1] | percent inhibition (TR-FRET) [2] |
| --- | --- | --- |
| CCCNCCCNc1ccnc2cc(Cl)ccc12 [SJ000361119] | 9.7847 | – |
| CCCCCCNCCCNc1ccnc2cc(Cl)ccc12 [SJ000361120] | 22.2507 | – |
| CSC(C)CCNCCCNc1ccnc2cc(Cl)ccc12 (stereo not shown) [SJ000361121] | 13.499 | – |
| CCCNCCCNc1ccnc2cc(C(F)(F)F)ccc12 [SJ000361123] | 12.8181 | – |
| CCCCCCNCCCNc1ccnc2cc(C(F)(F)F)ccc12 [SJ000361124] | 31.6112 | – |
| CSC(C)CCNCCCNc1ccnc2cc(C(F)(F)F)ccc12 (stereo not shown) [SJ000361125] | 24.4617 | – |
| Clc1ccc2c(NCCCN(Cc3ccccc3)Cc3ccccc3)ccnc2c1 [SJ000361166] | 14.7648 | – |
| Oc1ccccc1CN(CCCNc1ccnc2cc(Cl)ccc12)Cc1ccccc1 [SJ000361167] | 19.2696 | – |
| FC(F)(F)c1ccccc1CN(CCCNc1ccnc2cc(Cl)ccc12)Cc1ccccc1 [SJ000361168] | 2.509 | – |
| Cc1cc(C)c(CN(CCCNc2ccnc3cc(Cl)ccc23)Cc2ccccc2)c(C)c1 [SJ000361169] | 31.1941 | – |
| Clc1ccc2c(NCCCN(Cc3ccccc3)Cc3ccoc3)ccnc2c1 [SJ000361170] | 12.8437 | – |
| Clc1ccc2c(NCCCN(Cc3ccccc3)CC3CCCCC3)ccnc2c1 [SJ000361171] | 28.213 | – |
| CCC(CC)CN(CCCNc1ccnc2cc(Cl)ccc12)Cc1ccccc1 [SJ000361172] | 22.9132 | – |
| CCCCCN(CCCNc1ccnc2cc(Cl)ccc12)Cc1ccccc1 [SJ000361173] | 26.5568 | – |
| Fc1ccc(CN(CCCNc2ccnc3cc(Cl)ccc23)Cc2ccccc2)cc1F [SJ000361174] | 27.5505 | – |
| Fc1ccccc1CN(CCCNc1ccnc2cc(Cl)ccc12)Cc1ccccc1 [SJ000361175] | 0.9627 | – |
| Fc1cccc(CN(CCCNc2ccnc3cc(Cl)ccc23)Cc2ccccc2)c1 [SJ000361176] | 20.3571 | – |
| O=[N+]([O-])c1ccccc1CN(CCCNc1ccnc2cc(Cl)ccc12)Cc1ccccc1 [SJ000361177] | 16.421 | – |
| O=[N+]([O-])c1cccc(CN(CCCNc2ccnc3cc(Cl)ccc23)Cc2ccccc2)c1 [SJ000361178] | 17.0172 | – |

| SMILES | percent inhibition (TR-FRET) [1] | percent inhibition (TR-FRET) [2] |
| --- | --- | --- |
| O=[N+]([O-])c1ccc(CN(CCCNc2ccnc3cc(Cl)ccc23)Cc2ccccc2)cc1 [SJ000361179] | 20.1971 | – |
| O=C(O)c1ccccc1CN(CCCNc1ccnc2cc(Cl)ccc12)Cc1ccccc1 [SJ000361180] | 9.598 | – |
| Clc1ccc2c(NCCCN(Cc3ccccc3)Cc3cccc4ccccc34)ccnc2c1 [SJ000361181] | 26.2256 | – |
| Clc1ccc2c(NCCCN(Cc3ccccc3)Cc3ccc4ccccc4c3)ccnc2c1 [SJ000361182] | 22.052 | – |
| Cc1cccc(CN(CCCNc2ccnc3cc(Cl)ccc23)Cc2ccccc2)c1 [SJ000361183] | 6.02 | – |
| Clc1ccc(CN(CCCNc2ccnc3cc(Cl)ccc23)Cc2ccccc2)c(Cl)c1 [SJ000361184] | 25.4969 | – |
| Clc1ccc2c(NCCCN(CCCc3ccccc3)Cc3ccccc3)ccnc2c1 [SJ000361185] | 6.074 | – |
| CCC(C)CN(CCCNc1ccnc2cc(Cl)ccc12)Cc1ccccc1 (stereo not shown) [SJ000361186] | 29.5992 | – |
| Cc1ccc(C)c(CN(CCCNc2ccnc3cc(Cl)ccc23)Cc2ccccc2)c1 [SJ000361187] | 20.217 | – |
| COc1cccc(CN(CCCNc2ccnc3cc(Cl)ccc23)Cc2ccccc2)c1 [SJ000361188] | -9.05 | – |
| CCCCCCN(CCCNc1ccnc2cc(Cl)ccc12)Cc1ccccc1 [SJ000361189] | -40.7502 | – |
| Clc1ccc2c(NCCCCN(Cc3ccccc3)Cc3ccncc3)ccnc2c1 [SJ000361190] | – | -9.945 |
| Cc1ccsc1CN(CCCCNc1ccnc2cc(Cl)ccc12)Cc1ccccc1 [SJ000361191] | – | 23.4378 |
| FC(F)(F)c1ccccc1CN(CCCCNc1ccnc2cc(Cl)ccc12)Cc1ccccc1 [SJ000361192] | – | 27.8155 |
| Cc1cc(C)c(CN(CCCCNc2ccnc3cc(Cl)ccc23)Cc2ccccc2)c(C)c1 [SJ000361193] | – | 26.0268 |
| Clc1ccc2c(NCCCCN(Cc3ccccc3)CC3CCCCC3)ccnc2c1 [SJ000361194] | – | 41.9261 |
| CCC(CC)CN(CCCCNc1ccnc2cc(Cl)ccc12)Cc1ccccc1 [SJ000361195] | – | 25.5382 |
| CCCCCN(CCCCNc1ccnc2cc(Cl)ccc12)Cc1ccccc1 [SJ000361196] | – | 19.0968 |
